# Assay results from the supplement of paper PMC8882468.
# Tested on: HCI-015 (organoid from a triple-negative breast cancer xenograft)
# Assay: CTG-3D luminescence at 96 h relative to day-0 seeding control (ratio to day 0); higher = more growth / less cytotoxicity; PDxO 3D drug screen, 96 h, CTG-3D normalised to day-0 seeding control.
# Details: 10 µM; days in culture: 191
row,Compound,CTG-3D luminescence at 96 h
1,O=C(O)C1(C(=O)O)CCC1.[NH2-].[NH2-].[Pt+2] [carboplatin],0.766
2,COc1cc2c(Oc3ccc4[nH]c(C)cc4c3F)ncnc2cc1OCCCN1CCCC1 [cediranib],0.0236
3,C[C@@H]1COCCN1c1cc(C2([S@](C)(=N)=O)CC2)nc(-c2cc[nH]c3nccc2-3)n1 [ceralasertib],0.413
4,Cc1cc(Nc2ncc(Cl)c(Nc3ccccc3S(=O)(=O)C(C)C)n2)c(OC(C)C)cc1C1CCNCC1 [ceritinib],0.00448
5,O=C(c1ccc(F)c(F)c1Nc1ccc(I)cc1F)N1CC(O)([C@@H]2CCCCN2)C1 [cobimetinib],0.894
6,C[C@H](NC(=O)CCC(F)(F)F)C(=O)N[C@@H]1C(=O)N(CCO)c2ncccc2-c2ccccc21 [crenigacestat],0.657
7,COc1cccc2c1C(=O)c1c(O)c3c(c(O)c1C2=O)C[C@@](O)(C(=O)CO)C[C@@H]3O[C@H]1C[C@H](N)[C@H](O)[C@H](C)O1 [doxorubicin],0.0286
8,C[C@]12CC[C@@H]3c4ccc(O)cc4C[C@@H](CCCCCCCCC[S+]([O-])CCCC(F)(F)C(F)(F)F)[C@H]3[C@@H]1CC[C@@H]2O (some centres not stated) [fulvestrant],1.23
9,Nc1ccn([C@@H]2O[C@H](CO)[C@@H](O)C2(F)F)c(=O)n1 [gemcitabine],0.105

# Same assay, conditions: 10 µM; days in culture: 218
row,Compound,CTG-3D luminescence at 96 h
1,O=C(O)C1(C(=O)O)CCC1.[NH2-].[NH2-].[Pt+2] [carboplatin],0.685
2,COc1cc2c(Oc3ccc4[nH]c(C)cc4c3F)ncnc2cc1OCCCN1CCCC1 [cediranib],0.0308
3,C[C@@H]1COCCN1c1cc(C2([S@](C)(=N)=O)CC2)nc(-c2cc[nH]c3nccc2-3)n1 [ceralasertib],0.408
4,Cc1cc(Nc2ncc(Cl)c(Nc3ccccc3S(=O)(=O)C(C)C)n2)c(OC(C)C)cc1C1CCNCC1 [ceritinib],0.00686
5,O=C(c1ccc(F)c(F)c1Nc1ccc(I)cc1F)N1CC(O)([C@@H]2CCCCN2)C1 [cobimetinib],1.12
6,C[C@H](NC(=O)CCC(F)(F)F)C(=O)N[C@@H]1C(=O)N(CCO)c2ncccc2-c2ccccc21 [crenigacestat],0.533
7,COc1cccc2c1C(=O)c1c(O)c3c(c(O)c1C2=O)C[C@@](O)(C(=O)CO)C[C@@H]3O[C@H]1C[C@H](N)[C@H](O)[C@H](C)O1 [doxorubicin],0.0582
8,C[C@]12CC[C@@H]3c4ccc(O)cc4C[C@@H](CCCCCCCCC[S+]([O-])CCCC(F)(F)C(F)(F)F)[C@H]3[C@@H]1CC[C@@H]2O (some centres not stated) [fulvestrant],2.1
9,Nc1ccn([C@@H]2O[C@H](CO)[C@@H](O)C2(F)F)c(=O)n1 [gemcitabine],0.107

# Same assay, conditions: 100 µM; days in culture: 172
row,Compound,CTG-3D luminescence at 96 h
1,O=C(O)C1(C(=O)O)CCC1.[NH2-].[NH2-].[Pt+2] [carboplatin],0.354
2,COc1cc2c(Oc3ccc4[nH]c(C)cc4c3F)ncnc2cc1OCCCN1CCCC1 [cediranib],-0.0013
3,C[C@@H]1COCCN1c1cc(C2([S@](C)(=N)=O)CC2)nc(-c2cc[nH]c3nccc2-3)n1 [ceralasertib],0.385
4,Cc1cc(Nc2ncc(Cl)c(Nc3ccccc3S(=O)(=O)C(C)C)n2)c(OC(C)C)cc1C1CCNCC1 [ceritinib],-0.0049
5,O=C(c1ccc(F)c(F)c1Nc1ccc(I)cc1F)N1CC(O)([C@@H]2CCCCN2)C1 [cobimetinib],0.00672
6,C[C@H](NC(=O)CCC(F)(F)F)C(=O)N[C@@H]1C(=O)N(CCO)c2ncccc2-c2ccccc21 [crenigacestat],1.03
7,COc1cccc2c1C(=O)c1c(O)c3c(c(O)c1C2=O)C[C@@](O)(C(=O)CO)C[C@@H]3O[C@H]1C[C@H](N)[C@H](O)[C@H](C)O1 [doxorubicin],0.0135
8,C[C@]12CC[C@@H]3c4ccc(O)cc4C[C@@H](CCCCCCCCC[S+]([O-])CCCC(F)(F)C(F)(F)F)[C@H]3[C@@H]1CC[C@@H]2O (some centres not stated) [fulvestrant],1.39
9,Nc1ccn([C@@H]2O[C@H](CO)[C@@H](O)C2(F)F)c(=O)n1 [gemcitabine],0.152

# Same assay, conditions: 100 µM; days in culture: 191
row,Compound,CTG-3D luminescence at 96 h
1,O=C(O)C1(C(=O)O)CCC1.[NH2-].[NH2-].[Pt+2] [carboplatin],0.228
2,COc1cc2c(Oc3ccc4[nH]c(C)cc4c3F)ncnc2cc1OCCCN1CCCC1 [cediranib],-0.00165
3,C[C@@H]1COCCN1c1cc(C2([S@](C)(=N)=O)CC2)nc(-c2cc[nH]c3nccc2-3)n1 [ceralasertib],0.258
4,Cc1cc(Nc2ncc(Cl)c(Nc3ccccc3S(=O)(=O)C(C)C)n2)c(OC(C)C)cc1C1CCNCC1 [ceritinib],-0.00428
5,O=C(c1ccc(F)c(F)c1Nc1ccc(I)cc1F)N1CC(O)([C@@H]2CCCCN2)C1 [cobimetinib],0.0092
6,C[C@H](NC(=O)CCC(F)(F)F)C(=O)N[C@@H]1C(=O)N(CCO)c2ncccc2-c2ccccc21 [crenigacestat],0.695
7,COc1cccc2c1C(=O)c1c(O)c3c(c(O)c1C2=O)C[C@@](O)(C(=O)CO)C[C@@H]3O[C@H]1C[C@H](N)[C@H](O)[C@H](C)O1 [doxorubicin],0.019
8,C[C@]12CC[C@@H]3c4ccc(O)cc4C[C@@H](CCCCCCCCC[S+]([O-])CCCC(F)(F)C(F)(F)F)[C@H]3[C@@H]1CC[C@@H]2O (some centres not stated) [fulvestrant],1.35
9,Nc1ccn([C@@H]2O[C@H](CO)[C@@H](O)C2(F)F)c(=O)n1 [gemcitabine],0.109

# Same assay, conditions: 100 µM; days in culture: 218
row,Compound,CTG-3D luminescence at 96 h
1,O=C(O)C1(C(=O)O)CCC1.[NH2-].[NH2-].[Pt+2] [carboplatin],0.229
2,COc1cc2c(Oc3ccc4[nH]c(C)cc4c3F)ncnc2cc1OCCCN1CCCC1 [cediranib],-0.00209
3,C[C@@H]1COCCN1c1cc(C2([S@](C)(=N)=O)CC2)nc(-c2cc[nH]c3nccc2-3)n1 [ceralasertib],0.265
4,Cc1cc(Nc2ncc(Cl)c(Nc3ccccc3S(=O)(=O)C(C)C)n2)c(OC(C)C)cc1C1CCNCC1 [ceritinib],-0.00473
5,O=C(c1ccc(F)c(F)c1Nc1ccc(I)cc1F)N1CC(O)([C@@H]2CCCCN2)C1 [cobimetinib],0.00858
6,C[C@H](NC(=O)CCC(F)(F)F)C(=O)N[C@@H]1C(=O)N(CCO)c2ncccc2-c2ccccc21 [crenigacestat],0.827
7,COc1cccc2c1C(=O)c1c(O)c3c(c(O)c1C2=O)C[C@@](O)(C(=O)CO)C[C@@H]3O[C@H]1C[C@H](N)[C@H](O)[C@H](C)O1 [doxorubicin],0.0222
8,C[C@]12CC[C@@H]3c4ccc(O)cc4C[C@@H](CCCCCCCCC[S+]([O-])CCCC(F)(F)C(F)(F)F)[C@H]3[C@@H]1CC[C@@H]2O (some centres not stated) [fulvestrant],1.76
9,Nc1ccn([C@@H]2O[C@H](CO)[C@@H](O)C2(F)F)c(=O)n1 [gemcitabine],0.0645

# Same assay, conditions: 625 fM; days in culture: 172
row,Compound,CTG-3D luminescence at 96 h
1,O=C(O)C1(C(=O)O)CCC1.[NH2-].[NH2-].[Pt+2] [carboplatin],2.54
2,COc1cc2c(Oc3ccc4[nH]c(C)cc4c3F)ncnc2cc1OCCCN1CCCC1 [cediranib],2.51
3,C[C@@H]1COCCN1c1cc(C2([S@](C)(=N)=O)CC2)nc(-c2cc[nH]c3nccc2-3)n1 [ceralasertib],2.27
4,Cc1cc(Nc2ncc(Cl)c(Nc3ccccc3S(=O)(=O)C(C)C)n2)c(OC(C)C)cc1C1CCNCC1 [ceritinib],2.67
5,O=C(c1ccc(F)c(F)c1Nc1ccc(I)cc1F)N1CC(O)([C@@H]2CCCCN2)C1 [cobimetinib],2.48
6,C[C@H](NC(=O)CCC(F)(F)F)C(=O)N[C@@H]1C(=O)N(CCO)c2ncccc2-c2ccccc21 [crenigacestat],2.13
7,COc1cccc2c1C(=O)c1c(O)c3c(c(O)c1C2=O)C[C@@](O)(C(=O)CO)C[C@@H]3O[C@H]1C[C@H](N)[C@H](O)[C@H](C)O1 [doxorubicin],2.35
8,C[C@]12CC[C@@H]3c4ccc(O)cc4C[C@@H](CCCCCCCCC[S+]([O-])CCCC(F)(F)C(F)(F)F)[C@H]3[C@@H]1CC[C@@H]2O (some centres not stated) [fulvestrant],3.06
9,Nc1ccn([C@@H]2O[C@H](CO)[C@@H](O)C2(F)F)c(=O)n1 [gemcitabine],2.75

# Same assay, conditions: 625 fM; days in culture: 191
row,Compound,CTG-3D luminescence at 96 h
1,O=C(O)C1(C(=O)O)CCC1.[NH2-].[NH2-].[Pt+2] [carboplatin],1.15
2,COc1cc2c(Oc3ccc4[nH]c(C)cc4c3F)ncnc2cc1OCCCN1CCCC1 [cediranib],1.33
3,C[C@@H]1COCCN1c1cc(C2([S@](C)(=N)=O)CC2)nc(-c2cc[nH]c3nccc2-3)n1 [ceralasertib],1.52
4,Cc1cc(Nc2ncc(Cl)c(Nc3ccccc3S(=O)(=O)C(C)C)n2)c(OC(C)C)cc1C1CCNCC1 [ceritinib],1.68
5,O=C(c1ccc(F)c(F)c1Nc1ccc(I)cc1F)N1CC(O)([C@@H]2CCCCN2)C1 [cobimetinib],1.58
6,C[C@H](NC(=O)CCC(F)(F)F)C(=O)N[C@@H]1C(=O)N(CCO)c2ncccc2-c2ccccc21 [crenigacestat],1.32
7,COc1cccc2c1C(=O)c1c(O)c3c(c(O)c1C2=O)C[C@@](O)(C(=O)CO)C[C@@H]3O[C@H]1C[C@H](N)[C@H](O)[C@H](C)O1 [doxorubicin],1.61
8,C[C@]12CC[C@@H]3c4ccc(O)cc4C[C@@H](CCCCCCCCC[S+]([O-])CCCC(F)(F)C(F)(F)F)[C@H]3[C@@H]1CC[C@@H]2O (some centres not stated) [fulvestrant],1.56
9,Nc1ccn([C@@H]2O[C@H](CO)[C@@H](O)C2(F)F)c(=O)n1 [gemcitabine],1.5

# Same assay, conditions: 625 fM; days in culture: 218
row,Compound,CTG-3D luminescence at 96 h
1,O=C(O)C1(C(=O)O)CCC1.[NH2-].[NH2-].[Pt+2] [carboplatin],1.75
2,COc1cc2c(Oc3ccc4[nH]c(C)cc4c3F)ncnc2cc1OCCCN1CCCC1 [cediranib],1.68
3,C[C@@H]1COCCN1c1cc(C2([S@](C)(=N)=O)CC2)nc(-c2cc[nH]c3nccc2-3)n1 [ceralasertib],1.58
4,Cc1cc(Nc2ncc(Cl)c(Nc3ccccc3S(=O)(=O)C(C)C)n2)c(OC(C)C)cc1C1CCNCC1 [ceritinib],1.61
5,O=C(c1ccc(F)c(F)c1Nc1ccc(I)cc1F)N1CC(O)([C@@H]2CCCCN2)C1 [cobimetinib],1.64
6,C[C@H](NC(=O)CCC(F)(F)F)C(=O)N[C@@H]1C(=O)N(CCO)c2ncccc2-c2ccccc21 [crenigacestat],1.61
7,COc1cccc2c1C(=O)c1c(O)c3c(c(O)c1C2=O)C[C@@](O)(C(=O)CO)C[C@@H]3O[C@H]1C[C@H](N)[C@H](O)[C@H](C)O1 [doxorubicin],1.86
8,C[C@]12CC[C@@H]3c4ccc(O)cc4C[C@@H](CCCCCCCCC[S+]([O-])CCCC(F)(F)C(F)(F)F)[C@H]3[C@@H]1CC[C@@H]2O (some centres not stated) [fulvestrant],2.24
9,Nc1ccn([C@@H]2O[C@H](CO)[C@@H](O)C2(F)F)c(=O)n1 [gemcitabine],1.8
